Test: Ozone resistance (OD value reduction of printed patch)
Assay type: physicochemical
Settings: discussion of Table 1
Text: Each of the inks for ink-jet recording was filled into a desired ink cartridge, and the ink cartridge was attached to a digital multifunction device equipped with an ink-jet printer (DCP-110C, product of Brother Industries, Ltd.) to perform the printing evaluation. First, as an evaluation sample, a gradation sample of each cyan ink was printed on photo glossy paper (Model No. BP60GLA, product of Brother Industries, Ltd.) to prepare a patch having an initial OD value of 1.0. This patch was then subjected to an ozone resistance evaluation test using an Ozone Weather Meter OMS-H (product of Suga Test Instruments Co., Ltd.). That is, the patch was left to stand under the conditions of an ozone concentration of 1 ppm, a chamber temperature of 24° C. and a chamber humidity of 60% RH for 40 hours. Specifically, the color patch printed with each cyan ink and having an OD value of 1.0 before the test was then measured for an OD value after the ozone resistance evaluation test was completed. The OD value was measured by means of a Spectrolino (product of Gretag Macbeth) (light source: D65; viewing angle: 2°; Status A). […]
The obtained OD value reduction ratio was then evaluated according to the criteria below. When the OD value reduction ratio is less than 30%, the ozone resistance performance for general use is determined to be at an acceptable level. […]

In the case of C. I. Direct Blue 199 [Dye (2-C)], the “Ozone resistance (in words)” value is reported as “poor”.
